Reference: patent publication US20210322331A1, “NANOCAPSULES FOR THE DELIVERY OF CELL MODULATING AGENTS” (CSL BEHRING LLC, priority 2018, published 2021)

Experiments:
Type in all cases: cell-based
[1] = tested on: CCR5; assay: CCR5 staining with 6-TG selection in mPB CD34+ cells; conditions: 100 nM of 6TG day 4 to 14, flow at day 14; without 6TG 44.9%
Protocol: Assay protocols and results for CCR5 staining with 6-TG selection in sh734-KI mPB CD34+ cells (i.e. Mobilized CD34+ cells cultured with TPO/SCF/FLT3/IL3 and Knock-out of CCR5 and knock-in of sh734 in CD34+ cells)
(§1) Nanocapsules were formulated to contain CRISPR/Cas9/gRNAR targeting CCR5/mi-sh734 expression cassette HDR template CRISPR machinery complex (see methods). Cd34+ cells were thawed and pre-stimulated in x-vivo 10 with 100 ng/mL of TPO/SCF/FLT4/IL3 for overnight. Then 500 ng of Cas9-CCR5-gRNA-3G-mi-sh734 nanocapsules were added into 5×10^4 cells per well and 100 nM of 6TG was added into culture media from day 4 to 14. The flow analysis was carried out at day 14.
as §1, with “6-TG selection was examined using VCN/InDel data. mPB CD34+ were transfected/transduced as indicated in FIG. 8A Nanocapsules” for “Nanocapsules”, “prestimulated” for “pre-stimulated”, “X-vivo” for “x-vivo”

[2] = tested on: CEM cells; assay: Negative selection with MTX or MPA on transduced or transfected CEM cells; conditions: for GFP-population of transduced cells (HPRT knockdown): FIG. 10A, CEM experiment; for HPRT knockout population of CEM cells: FIG. 10B
Protocol: FIGS. 10A and 10B illustrate the effect of negative selection with 300 nM of MTX, 1 uM and 10 uM of MPA on CEM cells transduced with sh7-GFP lentiviral vector or transfected with RNP targeting HPRT1 nanocapsules.
(§2) Transduced or transfected CEM cells (such as those from Example 6) were cultured with or without MTX from day 0 to day 14. The medium was refreshed every 3 to 4 days. GFP was analyzed on flow machine and InDel % was analyzed by T7E1 assay.

[3] = tested on: K562 cells; assay: Negative selection with MTX on transduced or transfected K562 cells; conditions: 0.3 uM of MTX
Protocol: FIGS. 9A and 9B illustrate the effect of negative selection with 300 nM of MTX on K562 cells transduced with sh7-GFP lentiviral vector or transfected with RNP targeting HPRT1 nanocapsules.
as §2, with “K562” for “CEM”, “5)” for “6)”, “assay. […] FIG. 9B illustrated that the transfected K562 cells were eliminated under treatment with 0.3 uM of MTX at a faster pace as compared with the HPRT-KD population.” for “assay.”

Nc1nc2nc[nH]c2c(=S)[nH]1 [6TG, 6-thioguanine]
CCR5+ of CD34+ cells with 6TG treatment (no nanocapsule) [1]: 43.4%

COc1c(C)c2c(c(O)c1C/C=C(\C)CCC(=O)O)C(=O)OC2 [MPA, mycophenolic acid]
GFP-population of transduced cells (HPRT knockdown) ([2]; 1 uM of MPA): decreased
GFP-population of transduced cells (HPRT knockdown) ([2]; 10 uM of MPA): decreased
HPRT knockout population of CEM cells ([2]; 1 uM of MPA): eliminated at a faster pace
HPRT knockout population of CEM cells ([2]; 10 uM of MPA): eliminated at a faster pace

CN(Cc1cnc2nc(N)nc(N)c2n1)c1ccc(C(=O)N[C@@H](CCC(=O)O)C(=O)O)cc1 [MTX, methotrexate]
GFP-population of transduced K562 cells (HPRT knockdown) ([3]; FIG. 9A, day 0 to day 14): decreased
transfected (HPRT knockout) K562 cells ([3]; FIG. 9B, compared with the HPRT-KD population): eliminated
GFP-population of transduced cells (HPRT knockdown) ([2]; 0.3 uM of MTX): decreased
HPRT knockout population of CEM cells ([2]; 0.3 uM of MTX): eliminated at a faster pace
